pKd: −log10 of the molar value.
How the values were obtained:
[1] = biological target: T1, PfEGF1-α (Plasmodium falciparum, UniProt Q8I0P6); assay: bio-layer interferometry; type: binding
T1 construct: gene PF3D7_1357000; recombinant, pET28a vector, E. coli BL21; immobilised on NTA biosensor for BLI
T1 sequence (Q8I0P6 1-443): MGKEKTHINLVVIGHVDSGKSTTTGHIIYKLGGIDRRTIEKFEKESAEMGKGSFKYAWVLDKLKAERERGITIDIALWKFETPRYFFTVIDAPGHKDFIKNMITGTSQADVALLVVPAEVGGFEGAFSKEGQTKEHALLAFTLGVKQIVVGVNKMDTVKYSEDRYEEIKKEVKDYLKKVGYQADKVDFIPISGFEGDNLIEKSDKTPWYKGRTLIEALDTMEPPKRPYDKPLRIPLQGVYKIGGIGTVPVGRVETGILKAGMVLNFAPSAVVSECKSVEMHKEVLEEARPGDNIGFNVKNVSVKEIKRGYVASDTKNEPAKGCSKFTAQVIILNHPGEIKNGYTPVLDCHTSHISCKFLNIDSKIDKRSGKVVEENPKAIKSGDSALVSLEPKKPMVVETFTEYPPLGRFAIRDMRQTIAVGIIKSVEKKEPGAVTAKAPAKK

[2] = biological target: T2, PfSpdsyn (Plasmodium falciparum, UniProt Q8II73); assay: bio-layer interferometry; type: binding
T2 construct: gene PF3D7_1129000; 29-residue N-terminal deletion, pET28a vector, E. coli BL21; immobilised on NTA biosensor for BLI
T2 sequence (Q8II73 30-321): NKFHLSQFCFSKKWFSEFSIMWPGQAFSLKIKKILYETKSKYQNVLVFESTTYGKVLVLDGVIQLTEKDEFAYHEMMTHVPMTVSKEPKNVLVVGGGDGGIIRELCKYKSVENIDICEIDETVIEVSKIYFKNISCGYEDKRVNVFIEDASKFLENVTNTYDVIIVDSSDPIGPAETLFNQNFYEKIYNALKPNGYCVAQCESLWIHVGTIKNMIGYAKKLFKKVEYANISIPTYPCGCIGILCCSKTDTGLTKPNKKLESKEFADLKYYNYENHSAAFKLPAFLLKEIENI

SMILES: CC1=C(O)C(=O)C=C2C1=CC=C1[C@@]2(C)CC[C@@]2(C)[C@@H]3C[C@](C)(C(=O)O)CC[C@]3(C)CC[C@]12C [Celastrol]
- pKd [1]: 3.61
- pKd [2]: 4.17
